Assay: Lung S9 metabolism
Format: in vitro ADME
Settings: human lung S9; qualitative observation of O-sulfate metabolite peak
Description: Lung S9 fractions from human (lot 1410245) were purchased from XenoTech LLC (Lenexa, Kans.). NADPH (Sigma Aldrich, N1630) and 3-phosphoadenosine 5-phosphosulfate (PAPS) (Sigma Aldrich, A1651) were purchased from Sigma Aldrich (St. Louis, Mo.). Acetonitrile and water were obtained from VWR (Radnor, Pa.) and were of HPLC grade or better. Raloxifene and formic acid was purchased from Sigma Aldrich (St. Louis, Mo.). Lung S9 incubations were performed in a water bath at 37° C. in a 96-well polypropylene plate. […] All samples were centrifuged at 2250 g for 10 minutes at 5° C. Supernatant […] was taken from the centrifuged samples and diluted into 1004 HPLC water containing internal standard. […] Mobile Phase A consisted of Water+0.2% formic acid and Mobile Phase B consisted of acetonitrile+0.2% formic acid. Peak integration was accomplished using Gubbs GMSU software (Gubbs Inc., Alpharetta, Ga.). For each sample, peak area ratios were calculated by dividing the analyte peak area by the internal standard peak area. […] Determination of sulfate metabolite formation was made qualitatively by observation of early-eluting peak in the parent ion channel which, based on historical internal data, corresponded to the 0-sulfate metabolite of each parent compound.

SMILES | Sulfate Appearance
CCCN1Cc2[nH]c(-c3n[nH]c4cc(-c5ccc(O)cc5CC)ccc34)nc2C[C@H]1C(=O)N1CCN(CCO)CC1 [Compound 1, (S)-(2-(6-(2-ethyl-4-hydroxyphenyl)-1H-indazol-3-yl)-5-propyl-4,5,6,7-tetrahydro-3H-imidazo[4,5-c]pyridin-6-yl)(4-(2-hydroxyethyl)piperazin-1-yl)methanone] | Yes
CCCN1Cc2[nH]c(-c3n[nH]c4cc(-c5ccc(O)cc5CC)ccc34)nc2C[C@H]1C(=O)N1C[C@@H]2C[C@H]1CN2C [Compound 2, ((S)-2-(6-(2-ethyl-4-hydroxyphenyl)-1H-indazol-3-yl)-5-propyl-4,5,6,7-tetrahydro-3H-imidazo[4,5-c]pyridin-6-yl)((1S,4S)-5-methyl-2,5-diazabicyclo[2.2.1]heptan-2-yl)methanone] | Yes
CCc1cc(O)ccc1-c1ccc2c(-c3nc4c([nH]3)CN(C)[C@H](C(=O)N3CCN(C)C[C@@H]3C)C4)n[nH]c2c1 [Compound 3, ((S)-2,4-dimethylpiperazin-1-yl)((S)-2-(6-(2-ethyl-4-hydroxyphenyl)-1H-indazol-3-yl)-5-methyl-4,5,6,7-tetrahydro-3H-imidazo[4,5-c]pyridin-6-yl)methanone] | Yes
CCc1cc(O)ccc1-c1ccc2c(-c3nc4c([nH]3)CN(C(C)C)[C@H](C(=O)N3CCCN(C)CC3)C4)n[nH]c2c1 [Compound 4, (S)-(2-(6-(2-ethyl-4-hydroxyphenyl)-1H-indazol-3-yl)-5-isopropyl-4,5,6,7-tetrahydro-3H-imidazo[4,5-c]pyridin-6-yl)(4-methyl-1,4-diazepan-1-yl)methanone] | Yes
CCc1cc(O)ccc1-c1ccc2c(-c3nc4c([nH]3)CN(C)[C@H](C(=O)N3CCN(CCO)C[C@H]3C)C4)n[nH]c2c1 [Compound 5, ((S)-2-(6-(2-ethyl-4-hydroxyphenyl)-1H-indazol-3-yl)-5-methyl-4,5,6,7-tetrahydro-3H-imidazo[4,5-c]pyridin-6-yl)((R)-4-(2-hydroxyethyl)-2-methylpiperazin-1-yl)methanone] | Yes
CCc1cc(O)ccc1-c1ccc2c(-c3nc4c([nH]3)CN(C(C)C)[C@H](C(=O)N3CC[C@H](N(C)C)C3)C4)n[nH]c2c1 [Compound 6, ((S)-3-(dimethylamino)pyrrolidin-1-yl)((S)-2-(6-(2-ethyl-4-hydroxyphenyl)-1H-indazol-3-yl)-5-isopropyl-4,5,6,7-tetrahydro-3H-imidazo[4,5-c]pyridin-6-yl)methanone] | Yes
CCCN1Cc2[nH]c(-c3n[nH]c4cc(-c5cc(F)c(O)cc5CC)ccc34)nc2C[C@H]1C(=O)N1CCN(CCO)CC1 [Compound C-1, (S)-(2-(6-(2-ethyl-5-fluoro-4-hydroxyphenyl)-1H-indazol-3-yl)-5-propyl-4,5,6,7-tetrahydro-3H-imidazo[4,5-c]pyridin-6-yl)(4-(2-hydroxyethyl)piperazin-1-yl)methanone] | Yes
CCCN1Cc2[nH]c(-c3n[nH]c4cc(-c5cc(F)c(O)cc5CC)ccc34)nc2C[C@H]1C(=O)N1C[C@@H]2C[C@H]1CN2C [Compound C-2] | Yes
CCc1cc(O)c(F)cc1-c1ccc2c(-c3nc4c([nH]3)CN(C)[C@H](C(=O)N3CCN(C)C[C@@H]3C)C4)n[nH]c2c1 [Compound C-3, ((S)-2,4-dimethylpiperazin-1-yl)((S)-2-(6-(2-ethyl-5-fluoro-4-hydroxyphenyl)-1H-indazol-3-yl)-5-methyl-4,5,6,7-tetrahydro-3H-imidazo[4,5-c]pyridin-6-yl)methanone] | Yes
CCc1cc(O)c(F)cc1-c1ccc2c(-c3nc4c([nH]3)CN(C(C)C)[C@H](C(=O)N3CCCN(C)CC3)C4)n[nH]c2c1 [Compound C-4, (S)-(2-(6-(2-ethyl-5-fluoro-4-hydroxyphenyl)-1H-indazol-3-yl)-5-isopropyl-4,5,6,7-tetrahydro-3H-imidazo[4,5-c]pyridin-6-yl)(4-methyl-1,4-diazepan-1-yl)methanone] | Yes
CCc1cc(O)c(F)cc1-c1ccc2c(-c3nc4c([nH]3)CN(C)[C@H](C(=O)N3CCN(CCO)C[C@H]3C)C4)n[nH]c2c1 [Compound C-5, ((S)-2-(6-(2-ethyl-5-fluoro-4-hydroxyphenyl)-1H-indazol-3-yl)-5-methyl-4,5,6,7-tetrahydro-3H-imidazo[4,5-c]pyridin-6-yl)((R)-4-(2-hydroxyethyl)-2-methyl-piperazin-1-yl)methanone] | Yes
CCc1cc(O)c(F)cc1-c1ccc2c(-c3nc4c([nH]3)CN(C(C)C)[C@H](C(=O)N3CC[C@H](N(C)C)C3)C4)n[nH]c2c1 [Compound C-6] | Yes

Source: patent US11713315B2, “5 to 7 membered heterocyclic amides as JAK inhibitors” (priority 2018, dated 2023)
